Source: ChEMBL document CHEMBL3044712, “Herbicidal potential of pseudoguaninolide sesquiterpenes on wild oat, Avena fatua L” (Biochem Syst Ecol, 2012)

Experiments:
Avena fatua [1] = experiment: Phytotoxicity against Avena fatua assessed as seed germination at 1 mM measured after 10 days sowing (reference value: 50 +/- 2.89%); format: functional
Avena fatua [2] = experiment: Phytotoxicity against Avena fatua assessed as seed germination at 2 mM measured after 10 days sowing (reference value: 50 +/- 2.89%); format: functional
Avena fatua [3] = experiment: Phytotoxicity against Avena fatua assessed as inhibition of root growth as root length at 0.5 mM (reference value: 9.6 +/- 0.36%); format: functional; details: read-out: GI
Avena fatua [4] = experiment: Phytotoxicity against Avena fatua assessed as inhibition of root growth as root length at 0.125 mM (reference value: 9.6 +/- 0.36%); format: functional; details: read-out: GI
Avena fatua [5] = experiment: Phytotoxicity against Avena fatua assessed as inhibition of shoot growth as shoot length at 2 mM (reference value: 11.2 +/- 0.35%); format: functional; details: read-out: GI
Avena fatua [6] = experiment: Phytotoxicity against Avena fatua assessed as inhibition of root growth as root length at 1 mM (reference value: 9.6 +/- 0.36%); format: functional; details: read-out: GI
Avena fatua [7] = experiment: Phytotoxicity against Avena fatua assessed as seed germination at 0.5 mM measured after 10 days sowing (reference value: 50 +/- 2.89%); format: functional
Avena fatua [8] = experiment: Phytotoxicity against Avena fatua assessed as seed germination at 0.25 mM measured after 10 days sowing (reference value: 50 +/- 2.89%); format: functional
Avena fatua [9] = experiment: Phytotoxicity against Avena fatua assessed as inhibition of root growth as root length; format: functional, organism-based
Avena fatua [10] = experiment: Phytotoxicity against Avena fatua assessed as inhibition of shoot growth as shoot length at 0.125 mM (reference value: 11.2 +/- 0.35%); format: functional; details: read-out: GI
Avena fatua [11] = experiment: Phytotoxicity against Avena fatua assessed as inhibition of shoot growth as shoot length at 0.5 mM (reference value: 11.2 +/- 0.35%); format: functional; details: read-out: GI
Avena fatua [12] = experiment: Phytotoxicity against Avena fatua assessed as inhibition of shoot growth as shoot length at 1 mM (reference value: 11.2 +/- 0.35%); format: functional; details: read-out: GI
Avena fatua [13] = experiment: Phytotoxicity against Avena fatua assessed as inhibition of shoot growth as shoot length at 0.25 mM (reference value: 11.2 +/- 0.35%); format: functional; details: read-out: GI
Avena fatua [14] = experiment: Phytotoxicity against Avena fatua assessed as inhibition of shoot growth as shoot length; format: functional, organism-based
Avena fatua [15] = experiment: Phytotoxicity against Avena fatua assessed as seed germination at 0.125 mM measured after 10 days sowing (reference value: 50 +/- 2.89%); format: functional
Avena fatua [16] = experiment: Phytotoxicity against Avena fatua assessed as inhibition of root growth as root length at 0.25 mM measured after 10 days sowing (reference value: 9.6 +/- 0.36%); format: functional; details: 240 h, read-out: GI
Avena fatua [17] = experiment: Phytotoxicity against Avena fatua assessed as inhibition of root growth as root length at 2 mM (reference value: 9.6 +/- 0.36%); format: functional; details: read-out: GI

SMILES | Activity (Avena fatua [1]) | Activity (Avena fatua [2]) | inhibition of growth at 500 µM (Avena fatua [3]) | inhibition of growth at 125 µM (Avena fatua [4]) | inhibition of growth at 2000 µM (Avena fatua [5]) | inhibition of growth at 1000 µM (Avena fatua [6]) | Activity (Avena fatua [7]) | Activity (Avena fatua [8]) | EC50 (Avena fatua [9]) | inhibition of growth at 125 µM (Avena fatua [10]) | inhibition of growth at 500 µM (Avena fatua [11]) | inhibition of growth at 1000 µM (Avena fatua [12]) | inhibition of growth at 250 µM (Avena fatua [13]) | EC50 (Avena fatua [14]) | Activity (Avena fatua [15]) | inhibition of growth at 250 µM (Avena fatua [16]) | inhibition of growth at 2000 µM (Avena fatua [17])
C=C(C(=O)O)[C@@H]1CC[C@H](C)[C@@H]2CCC(=O)[C@@]2(C)C1 [DAMCINIC ACID] | 38.3% | 28.3% | 50% | 4.2% | 70.5% | 64.6% | 38.3% | 40% | 600 µM | 3.6% | 29.5% | 44.6% | 6.3% | 1090 µM | 41.7% | 31.3% | 79.2%
C=C1C(=O)O[C@@H]2[C@H]1CC[C@H](C)[C@@H]1C=CC(=O)[C@@]21C [AMBROSIN] | 26.7% | 26.7% | 85.4% | 22.9% | 86.6% | 92.4% | 28.3% | 36.7% | 220 µM | 19.6% | 74.1% | 75.9% | 51.8% | 300 µM | 50% | 57.3% | 99%
C=C1C(=O)O[C@@H]2[C@H]1CC[C@H](C)C1=CCC(=O)[C@]12C [NEOAMBROSIN] | 40% | 23.3% | 45.6% | 11.5% | 84.8% | 61.5% | 36.7% | 40% | 480 µM | 2.7% | 20.5% | 43.8% | 10.7% | 960 µM | 46.7% | 40.6% | 94.8%
C=C1C(=O)O[C@@H]2[C@H]1CC[C@H](C)[C@@]1(O)C=CC(=O)[C@@]21C [HYMENIN] | 30% | 30% | 37.5% | 8.3% | 80.4% | 72.9% | 33.3% | 36.7% | 570 µM | 10.7% | 39.3% | 60.7% | 25% | 670 µM | 38.3% | 15.6% | 95.6%
C=C1C(=O)O[C@@H]2[C@H]1CC[C@H](C)[C@@H]1CCC(=O)[C@@]21C [DAMSIN] | 26.7% | 16.7% | 65.6% | 30.2% | 83.9% | 92.4% | 30% | 35% | 240 µM | 1.8% | 22.3% | 66.1% | 5.4% | 830 µM | 46.7% | 55.2% | 98.2%
